Measurements from patent US20260207563A1, “UREA COMPOUNDS AS ACTIVATORS OF POTASSIUM CHANNELS KV7.2/7.3 USEFUL IN THE TREATMENT OF CNS AND PNS DISORDERS” (ANGELINI PHARMA S.P.A., priority 2022, published 2026).
pEC50: −log10 of the molar value.

Columns and labels:
Assay type in all cases: cell-based
[1] = target: T1, heteromeric KV7.2/KV7.3 channels (KCNQ2, KCNQ3) (Homo sapiens, UniProt O43525+O43526); assay: Automated patch-clamp (Sophion Qube 384) potency assay against KV7.2/KV7.3 channels; conditions: CHO-K1/Kv7.2/Kv7.3 cells; for pEC50: EC50 from concentration-response of shift in Vhalf, 10 concentrations up to 30 μM, read-out: Kv7.2/7.3 EC50; for Kv7.2/7.3 ΔV1/2: maximal shift in the Vhalf from the top of the curve
T1 construct: expressed in transfected cells; host or cells: CHO-K1
Method in brief: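 Whole-cell automated patch clamp on CHO-K1 cells stably expressing human KV7.2/KV7.3, held at −80 mV; I-V steps −100 to +20 mV (1 s) with 0 mV tail pulses, Boltzmann-fitted activation curves. Ten concentrations (1:3 from 30 μM, quadruplicate) versus 0.3% DMSO control; EC50 and maximal shift from 4-parameter fits of Vhalf shift.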

[2] = target: T2, heteromeric KV7.3/KV7.5 channel (KCNQ3, KCNQ5) (Homo sapiens, UniProt O43525+Q9NR82); assay: Automated patch-clamp counter-screening against KV7.3/KV7.5 channel; conditions: HEK293 cells expressing Kv7.3/KV7.5; class by maximal shift in the Vhalf at 30 μM
T2 construct: host or cells: HEK293
Method in brief: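 HEK293 cells with constitutive Kv7.3 and tetracycline-inducible Kv7.5 were recorded by automated patch clamp. Ten concentrations (1:3 series from 30 μM, quadruplicate) were tested; Vhalf shifts were fitted with a 4-parameter logistic to give EC50 and maximal Vhalf shift, with selectivity based on the shift at 30 μM.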

[3] = target: T3, homomeric KV7.4 channel (KCNQ4) (Homo sapiens, UniProt P56696); assay: Automated patch-clamp (Qube) counter-screening assay against KV7.4 channel; conditions: CHO-K1 cells expressing KV7.4; class by maximal shift in the Vhalf at 30 μM
T3 construct: host or cells: CHO-K1
Method in brief: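 CHO-K1 cells stably expressing homomeric human KV7.4 were recorded on the Qube automated patch clamp. Ten concentrations (1:3 dilutions from 30 μM) were tested in quadruplicate. The mean Vhalf shift was fitted with a 4-parameter logistic to give EC50 and maximal Vhalf shift, and selectivity was based on the shift at 30 μM.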

SMILES | pEC50 [1] | Kv7.2/7.3 ΔV1/2 [1] [mV] | Kv7.3/7.5 selectivity criteria [2] | Kv7.4 selectivity criteria [3]
Cc1ccc2c(c1)[C@H](NC(=O)NCc1ccnc(OCC(F)(F)F)c1)CC2 [Compound 126] | 5.51 | 42.02 | B (Non-selective compounds showed Kv7.4 and/or Kv7.3/7.5 ΔV1/2 higher than 15 mV (letter B in table 3)) | B (Non-selective compounds showed Kv7.4 and/or Kv7.3/7.5 ΔV1/2 higher than 15 mV (letter B in table 3))
O=C(NCc1ccnc(OCC(F)(F)F)c1)N[C@@H]1CCc2cc(Cl)ccc21 [Compound 127] | 5.80 | 30.45 | B (Non-selective compounds showed Kv7.4 and/or Kv7.3/7.5 ΔV1/2 higher than 15 mV (letter B in table 3)) | B (Non-selective compounds showed Kv7.4 and/or Kv7.3/7.5 ΔV1/2 higher than 15 mV (letter B in table 3))
COc1ccc2c(c1)[C@@H](NC(=O)NCc1ccnc(OCC(F)(F)F)c1)CC2 [Compound 128] | 6.40 | 15.68 | A (Selective compounds showed Kv7.4 and/or Kv7.3/7.5 ΔV1/2 equal to or lower than 15 mV (letter A in table 3)) | A (Selective compounds showed Kv7.4 and/or Kv7.3/7.5 ΔV1/2 equal to or lower than 15 mV (letter A in table 3))
Cc1ccc2c(c1)CCC2NC(=O)NCc1ccnc(OCC(F)(F)F)c1 (stereo not shown) [Compound 129] | 6.03 | 14.07 | A (Selective compounds showed Kv7.4 and/or Kv7.3/7.5 ΔV1/2 equal to or lower than 15 mV (letter A in table 3)) | A (Selective compounds showed Kv7.4 and/or Kv7.3/7.5 ΔV1/2 equal to or lower than 15 mV (letter A in table 3))
O=C(NCc1ccnc(OCC(F)(F)F)c1)N[C@@H]1CCOc2ccccc21 [Compound 130] | 5.79 | 40.52 | B (Non-selective compounds showed Kv7.4 and/or Kv7.3/7.5 ΔV1/2 higher than 15 mV (letter B in table 3)) | B (Non-selective compounds showed Kv7.4 and/or Kv7.3/7.5 ΔV1/2 higher than 15 mV (letter B in table 3))
O=C(NCc1ccnc(OCC(F)(F)F)c1)Nc1cccc2c1OCC2 [Compound 131] | 6.12 | 22.47 | A (Selective compounds showed Kv7.4 and/or Kv7.3/7.5 ΔV1/2 equal to or lower than 15 mV (letter A in table 3)) | B (Non-selective compounds showed Kv7.4 and/or Kv7.3/7.5 ΔV1/2 higher than 15 mV (letter B in table 3))
O=C(NCc1ccnc(OCC(F)(F)F)c1)N[C@H]1CCOc2ccccc21 [Compound 132] | 5.49 | 19.47 | A (Selective compounds showed Kv7.4 and/or Kv7.3/7.5 ΔV1/2 equal to or lower than 15 mV (letter A in table 3)) | A (Selective compounds showed Kv7.4 and/or Kv7.3/7.5 ΔV1/2 equal to or lower than 15 mV (letter A in table 3))
O=C(NCc1ccnc(OCC(F)(F)F)c1)N[C@@H]1COc2ccccc21 [Compound 133] | 5.55 | 34.47 | B (Non-selective compounds showed Kv7.4 and/or Kv7.3/7.5 ΔV1/2 higher than 15 mV (letter B in table 3)) | A (Selective compounds showed Kv7.4 and/or Kv7.3/7.5 ΔV1/2 equal to or lower than 15 mV (letter A in table 3))
COc1ccc2c(c1)[C@H](NC(=O)NCc1ccnc(OCC(F)(F)F)c1)CC2 [Compound 134] | 5.51 | 43.25 | B (Non-selective compounds showed Kv7.4 and/or Kv7.3/7.5 ΔV1/2 higher than 15 mV (letter B in table 3)) | A (Selective compounds showed Kv7.4 and/or Kv7.3/7.5 ΔV1/2 equal to or lower than 15 mV (letter A in table 3))
O=C(NCc1ccnc(OCC(F)(F)F)c1)NC1CCc2c(F)cc(F)cc21 (stereo not shown) [Compound 135] | 6.45 | 22.58 | A (Selective compounds showed Kv7.4 and/or Kv7.3/7.5 ΔV1/2 equal to or lower than 15 mV (letter A in table 3)) | A (Selective compounds showed Kv7.4 and/or Kv7.3/7.5 ΔV1/2 equal to or lower than 15 mV (letter A in table 3))
CC1Cc2cccc(NC(=O)NCc3ccnc(OCC(F)(F)F)c3)c2O1 (stereo not shown) [Compound 136] | 6.25 | 16.11 | A (Selective compounds showed Kv7.4 and/or Kv7.3/7.5 ΔV1/2 equal to or lower than 15 mV (letter A in table 3)) | A (Selective compounds showed Kv7.4 and/or Kv7.3/7.5 ΔV1/2 equal to or lower than 15 mV (letter A in table 3))
O=C(NCc1ccnc(OCC(F)(F)F)c1)NC1CCc2ccccc21 (stereo not shown) [Compound 137] | 6.07 | 22.07 | B (Non-selective compounds showed Kv7.4 and/or Kv7.3/7.5 ΔV1/2 higher than 15 mV (letter B in table 3)) | B (Non-selective compounds showed Kv7.4 and/or Kv7.3/7.5 ΔV1/2 higher than 15 mV (letter B in table 3))
O=C(NCc1ccnc(OCC(F)(F)F)c1)N[C@H]1CCCc2ccccc21 [Compound 138] | 6.71 | 17.98 | A (Selective compounds showed Kv7.4 and/or Kv7.3/7.5 ΔV1/2 equal to or lower than 15 mV (letter A in table 3)) | A (Selective compounds showed Kv7.4 and/or Kv7.3/7.5 ΔV1/2 equal to or lower than 15 mV (letter A in table 3))
CC1CC(NC(=O)NCc2ccnc(OCC(F)(F)F)c2)c2ccccc21 (stereo not shown) [Compound 139] | 5.65 | 34.89 | A (Selective compounds showed Kv7.4 and/or Kv7.3/7.5 ΔV1/2 equal to or lower than 15 mV (letter A in table 3)) | A (Selective compounds showed Kv7.4 and/or Kv7.3/7.5 ΔV1/2 equal to or lower than 15 mV (letter A in table 3))
O=C(NCc1ccnc(OCC(F)(F)F)c1)Nc1cccc2c1OCCC2 [Compound 140] | 5.51 | 25.85 | A (Selective compounds showed Kv7.4 and/or Kv7.3/7.5 ΔV1/2 equal to or lower than 15 mV (letter A in table 3)) | A (Selective compounds showed Kv7.4 and/or Kv7.3/7.5 ΔV1/2 equal to or lower than 15 mV (letter A in table 3))
O=C(NCc1ccnc(OCC(F)(F)F)c1)NCC1CCCc2ccccc21 (stereo not shown) [Compound 141] | 6.55 | 17.59 | A (Selective compounds showed Kv7.4 and/or Kv7.3/7.5 ΔV1/2 equal to or lower than 15 mV (letter A in table 3)) | A (Selective compounds showed Kv7.4 and/or Kv7.3/7.5 ΔV1/2 equal to or lower than 15 mV (letter A in table 3))
O=C(NCc1ccnc(OCC(F)(F)F)c1)N[C@H]1CCCOc2ccccc21 [Compound 142] | 6.18 | 16.4 | A (Selective compounds showed Kv7.4 and/or Kv7.3/7.5 ΔV1/2 equal to or lower than 15 mV (letter A in table 3)) | A (Selective compounds showed Kv7.4 and/or Kv7.3/7.5 ΔV1/2 equal to or lower than 15 mV (letter A in table 3))
O=C(NCc1ccnc(OCC(F)(F)F)c1)N[C@H]1CCc2c(Cl)cccc21 [Compound 143] | 5.40 | 22.37 | B (Non-selective compounds showed Kv7.4 and/or Kv7.3/7.5 ΔV1/2 higher than 15 mV (letter B in table 3)) | A (Selective compounds showed Kv7.4 and/or Kv7.3/7.5 ΔV1/2 equal to or lower than 15 mV (letter A in table 3))
O=C(NCc1ccnc(OCC(F)(F)F)c1)NC1CCc2sccc21 (stereo not shown) [Compound 144] | 5.57 | 23.26 | A (Selective compounds showed Kv7.4 and/or Kv7.3/7.5 ΔV1/2 equal to or lower than 15 mV (letter A in table 3)) | A (Selective compounds showed Kv7.4 and/or Kv7.3/7.5 ΔV1/2 equal to or lower than 15 mV (letter A in table 3))
O=C(NCc1ccnc(OCC(F)(F)F)c1)NCC1Cc2ccccc2C1 [Compound 145] | 5.79 | 23.71 | A (Selective compounds showed Kv7.4 and/or Kv7.3/7.5 ΔV1/2 equal to or lower than 15 mV (letter A in table 3)) | A (Selective compounds showed Kv7.4 and/or Kv7.3/7.5 ΔV1/2 equal to or lower than 15 mV (letter A in table 3))
O=C(NCc1ccnc(OCC(F)(F)F)c1)NC1(CO)Cc2ccccc2C1 [Compound 146] | 5.18 | 30.86 | B (Non-selective compounds showed Kv7.4 and/or Kv7.3/7.5 ΔV1/2 higher than 15 mV (letter B in table 3)) | B (Non-selective compounds showed Kv7.4 and/or Kv7.3/7.5 ΔV1/2 higher than 15 mV (letter B in table 3))
O=C(NCc1ccnc(OCC(F)(F)F)c1)NC1COc2ccc(F)cc21 (stereo not shown) [Compound 147] | 5.72 | 15.93 | A (Selective compounds showed Kv7.4 and/or Kv7.3/7.5 ΔV1/2 equal to or lower than 15 mV (letter A in table 3)) | A (Selective compounds showed Kv7.4 and/or Kv7.3/7.5 ΔV1/2 equal to or lower than 15 mV (letter A in table 3))
